Test results reported in ChEMBL document CHEMBL3507680, “University of Dundee, Gates Library screen for HepG2 cell viability”.

Experiment: Human HepG2 cell viability assay in 384 well format
Assay type: toxicity, cell-based
Parameters: dose 125 nL, time 70.5 hour; concentration not given beside the values
Details: HepG2 cells, read-out: Inhibition

Structure (SMILES) | cytotoxicity at 70.5 h
c1cc2c(cc1-c1noc3c1CN(C1CCC1)CC3)OCO2 | 1.77%
CCN(C)c1ccc(C(=O)NCCCc2ccccn2)cn1 | -4.13%
COc1ccc(CCNC(=O)NC2CCCC2)cc1OC | -12.5%
Cc1n[nH]c(C)c1-c1cnc(CC2CCN(C(C)C)CC2)cn1 | -2.78%
CC[C@@]1(O)CCN(C(=O)c2ccoc2)C[C@H]1O | -7.14%
CCC(CC)(CCO)CNC(=O)c1ccon1 | -8.6%
CC(=O)c1cccc(OCCCC(=O)N(C)Cc2cscn2)c1 | 7.32%
CCN(Cc1ccccc1)C(=O)CN1CCCCC1Cn1cncn1 (stereo unspecified) | -6.76%
COc1cc(C(=O)N(C)C(C)Cc2cc(C)ccn2)ccn1 (stereo unspecified) | 25.8%
CC1CCN(c2ccc3c(-c4ncc(C(=O)O)s4)noc3c2)CC1 | -5.23%
CN(Cc1cnn(C)c1)C(=O)NCc1cc(Br)cs1 | -2.54%
O=C(NCC1(CO)CC1)c1cccc2ccccc12 | 2.2%
CC(C)CNC(=O)c1nc(COc2ccc3c(c2)OCO3)no1 | -7.9%
CCc1nc(CN(C)c2nccc(N3CCCC(O)C3)n2)no1 (stereo unspecified) | -0.51%
Cc1cc2nc(C(C)C)cc(N(C)CC3CCN(C(C)C)C3)n2n1 (stereo unspecified) | 28%
Cc1cccnc1C(=O)N1CCCCC1c1[nH]ncc1S(C)(=O)=O (stereo unspecified) | 1.39%
COCc1nc(CNc2cc(C)on2)cs1 | -3.59%
CCn1c(C)nnc1CN(C)C1CCN(Cc2ccon2)C1 (stereo unspecified) | -1.86%
O=C(Nc1cc(C(F)(F)F)c[nH]c1=O)C1CCCN1 (stereo unspecified) | -10.7%
Cc1cncc(C(=O)N2CCN(c3cnn(C)c(=O)c3)CC2)c1 | -6.5%
Cc1nc(CN2CCN(Cc3nccn3C)CC2)no1 | 3.86%
C[C@]1(O)CN(Cc2ccc(C(=O)O)cc2)CC[C@@H]1Oc1cccc(F)c1 | -10.9%
O=C1CCC2(CCN(Cc3cscn3)CC2)CN1[C@H]1CC[C@H](O)CC1 | -13.1%
COc1ccc(Oc2cccnc2)cc1CN1CCCC1 | 28.5%

Structure (SMILES) | cytotoxicity at 70.5 h
CN(C)C(=O)c1c[nH]nc1C1CCN(S(=O)(=O)c2ccccc2)CC1 | -1.91%
Cc1nc(N2CCOCC2)nc2c1CCN(Cc1cccnc1)CC2 | -17.8%
CSCCNC(=O)c1ccc(OC2CCN(CC(C)(C)C)CC2)c(Cl)c1 | -7.8%
CN1CCc2nc(C3CCN(C(=O)CCC4CCCC4)CC3)ncc2C1 | -16.6%
CCc1ccc(CN2CCc3c(nnn3C)C2COC)cc1 (stereo unspecified) | -5.54%
Cc1ccccc1C(NC(=O)CNC(=O)c1ccoc1C)C(C)C (stereo unspecified) | 11.7%
CC(=O)c1cccc(NC(=O)CN2CCCC(C3OCCO3)C2)c1 (stereo unspecified) | -7.07%
O=C(Nc1ccc(-c2ccccc2)cc1)N1C[C@@H]2CNC[C@]2(C(=O)O)C1 | -9.81%
Cc1cc(NC(C)C(=O)NCc2ccccc2)nc(-c2ccncc2)n1 (stereo unspecified) | -13.1%
CN(C)CC1(O)CCN(C(=O)c2cnc(CN3CCCC3)s2)C1 (stereo unspecified) | 0.326%
CNc1nc(C(=O)N2CCn3nc(C(=O)OC)cc3C2)cs1 | -4.4%
CCC(C)Oc1ccccc1CN1Cc2ncccc2C1=O (stereo unspecified) | 0.0852%
Cc1ccc(-c2ccnc(NC(C)c3c(C)n[nH]c3C)n2)c(C)n1 (stereo unspecified) | -8.64%
Cc1cc(C2CCCN(CCCS(=O)(=O)c3ccccc3)C2)n[nH]1 (stereo unspecified) | -14%
COc1cc(CN2CCN(CC3CC3)[C@@H]3CS(=O)(=O)C[C@@H]32)cc(OC)c1 | 3.14%
Cn1ccnc1CN1CCCN(C(=O)c2ccc3cc[nH]c3c2)CC1 | -7.08%
Cc1nc(CN2CCO[C@@H]3CN(Cc4nccs4)C[C@@H]3C2)cs1 | -1.91%
Cc1cnc(NC(=O)NC(CCO)c2cccs2)s1 (stereo unspecified) | -3.17%
Cc1cnn(C2CCCN(C(=O)Cc3ccc(C)s3)C2)c1 (stereo unspecified) | -0.137%
O=C(c1cccnc1)N1CCc2onc(CN3CCCC3)c2C1 | -4.02%
O=C(NCc1nnc2n1CCCCC2)N(Cc1ccccn1)C1CC1 | 0.752%
FC(F)(F)c1cc(N2CCc3ncnc(NC4CC4)c3CC2)ncn1 | 5.67%
COCCc1noc(-c2cn(Cc3ccc(OC)cc3)nn2)n1 | 7.6%
CC(=O)N[C@@H]1CN(C(=O)c2ccoc2)C[C@H]1c1ccc(C)cc1 | -13.3%

Structure (SMILES) | cytotoxicity at 70.5 h
CN(c1ccc(-c2nc(C3CC3)no2)cn1)C1CCOCC1 | -3.42%
CCCc1nnc(N2CCN(c3cccc(OC)c3)C(=O)C2)o1 | 15.6%
CSc1nc(O)c(Cc2ccccc2)c(=O)n1-c1ccccc1 | -6.85%
CC(C)C(NC(N)=O)C(=O)N1CCN(c2ccccc2Cl)C(=O)C1 (stereo unspecified) | -9.59%
COc1ccnc(N2CCN(C(=O)c3csc(C4CC4)n3)CC2)n1 | -6.71%
COc1cccc2c3c(c(=O)n(C)c12)CCC(C)(C)O3 | -10.4%
CC(N)Cc1ccccc1Sc1ccc(O)cc1 (stereo unspecified) | -7.28%
CCC1C(=O)NCCN1c1cc(C)ncn1 (stereo unspecified) | -22.8%
O=C(Nc1ncc[nH]1)c1cc(-c2cccnc2)n[nH]1 | -2.08%
N#Cc1cc(F)c(NCCc2cccnc2)c(F)c1 | -4.91%
Cn1cc(CN2CCO[C@H]3C(Cn4cccn4)CC[C@@H]32)cn1 (stereo partly specified) | 2.67%
Cc1cccc(O[C@H]2COCCN(C3CCC3)C2)n1 | -6.06%
O=c1oc(-c2cccs2)nn1CC1(O)CCCCC1 | -1.35%
Cc1cc(C)nc(C2CCCNC2)n1 (stereo unspecified) | 17.9%
CCNC(=O)N1CCC(Cc2cccc(C(N)=O)c2)C1 (stereo unspecified) | -5.09%
COc1cc(N2CCC(c3nccn3CCCN(C)C)CC2)nc(N)n1 | -1.61%
CNc1nc(C(=O)N2CCCC(COc3ccc(F)cc3)C2)cs1 (stereo unspecified) | 3.44%
Cc1ccn(CCNc2ncnc3c2CCN(S(C)(=O)=O)CC3)n1 | 1.8%
O=C(Cc1ccc(S(=O)(=O)C(F)F)cc1)N1CCC1 | -10.6%
Cn1cccc1C(=O)N1CCN(CC2CC2)c2ncccc2C1 | 2.74%
CN(C)CCN1C(=O)CCC12CCCN(C(=O)C1CC=CC1)CC2 (stereo unspecified) | -1.28%
Cc1c(CC(C#N)C(=O)Nc2cccc(O)c2)cnn1C (stereo unspecified) | -12.8%
OCC(CO)Nc1ccc2c(Cl)ccc(Cl)c2n1 | -1%
O=C(c1ccccn1)N1CCc2c(nc(-c3ccncc3)[nH]c2=O)C1 | -6.64%

Structure (SMILES) | cytotoxicity at 70.5 h
CCc1nc(CNc2ccc(C(=O)N3CCSCC3)cc2C)no1 | -6.1%
c1ccc(-c2ccc(CN3CCOC(Cn4cncn4)C3)cc2)cc1 (stereo unspecified) | 22%
O=C1CCN(C(=O)C2(c3ccc(Br)cc3)CC2)CCN1 | 1.42%
CCCC(C)C(=O)NCc1cn2cc(Br)ccc2n1 (stereo unspecified) | -7.73%
Cn1cnnc1C1CCCN(C(=O)c2ccc3c(c2)OCCO3)C1 (stereo unspecified) | -4.4%
c1ccc(N2CCCC(c3nc(-c4cccnn4)no3)C2)nc1 (stereo unspecified) | -11.5%
Oc1nc(N2CCOCC2)nc2c1CCN(Cc1ccc(F)cc1)CC2 | -2.02%
CC(Cc1ccco1)NC(=O)CSc1nnc[nH]1 (stereo unspecified) | -9.49%
COc1ccc(OCCN2CCN(Cc3nccn3C)CC2)cc1 | 12.8%
Cc1ccc2c(c1)nc1n2[C@@H](CNC(=O)c2cccnc2)COC1 | -4.19%
Cc1ccc(NC2CCN(C(=O)c3ccncc3)CC2)nn1 | -12.4%
O=C1COC2(CCN(Cc3nccs3)CC2)CN1CC1CC1 | 6.87%
COc1ccccc1CC(=O)N1CCC(OCc2cccnc2)CC1 | -13.8%
CCOC(=O)C1CCCN(Cc2cc(C#N)n(C)c2C)C1 (stereo unspecified) | -11.7%
COCCCN(CCOC)C(=O)Nc1ccc(Br)cc1 | -7.21%
Cn1nc(Cn2ccnc2)c2c1CN(C(=O)c1ccoc1)C2 | -9.72%
CC(=O)c1cccc(NC(=O)N(CC(F)F)C2CC2)c1 | 19.6%
Cc1noc(C)c1CNC(=O)N1CCCC(C)CC1 (stereo unspecified) | -3.6%
Cn1ccnc1CN1C(=O)CO[C@H]2CN(Cc3ccc(F)c(F)c3)C[C@H]21 | 8.11%
CCN1CCN(C(=O)c2scnc2C)CC1 | 18.9%
COCCN(C)C(=O)c1ccccc1-n1cccn1 | 5.05%
CC(C(=O)N1CCCC1)S(=O)(=O)Cc1nc(C(C)(C)C)no1 (stereo unspecified) | -8.31%
Cc1cnc(N2CCC3(CCN(Cc4csc(C)n4)C3=O)C2)nc1 (stereo unspecified) | -5.87%
CC1CN(CC(=O)NCc2ccc(F)cc2)CCN1c1nccs1 (stereo unspecified) | 0.122%

Structure (SMILES) | cytotoxicity at 70.5 h
CC(c1ccc(Cl)cc1)N1CCN(CCS(C)(=O)=O)CC1 (stereo unspecified) | -6.43%
CCN1CCOCC2(CCCN(c3nncs3)C2)C1 (stereo unspecified) | -2.2%
NC(=O)[C@H]1CCCN(c2nccc(-c3c[nH]nc3-c3cccnc3)n2)C1 | -2.79%
CCOCc1ccc(CNc2cncc(-n3cccn3)n2)cc1 | 8.54%
O=C1[C@H]2CN(Cc3ccco3)C[C@H]2CN1c1ccsc1 | -11.1%
N#Cc1ccc2c(c1)CN(C(=O)C1CC=CC1)C2c1cnco1 (stereo unspecified) | -6.37%
COc1ccc(CN(Cc2cn(C)nc2C)CC2CCCO2)c(OC)c1 (stereo unspecified) | -2.41%
Cc1ccc(Nc2nccc(C3CCN(C(=O)CN)C3)n2)nc1 (stereo unspecified) | -5.12%
Cc1ccc2cc(CN(C)Cc3nccs3)c(=O)[nH]c2c1 | -11.3%
Cc1nnc(NCC2(c3ccccc3)CCOCC2)c(C#N)c1C | 16.6%
CCc1ccc(CN2CCC3(CC(C(=O)NCC(C)C)=NO3)C2)o1 (stereo unspecified) | -7.77%
Cc1ccc(N2CC[C@H]3OCC[C@@]3(C(=O)NCC3CC3)C2)nn1 | -7.61%
c1ccn(Cc2nnc3n2CCCN(c2cnccn2)C3)c1 | 16%
CN(CCc1ccccc1)Cc1c(C2CC2)[nH]c2ncccc12 | 2.38%
O=C(CCCn1cncn1)NC1(c2cccc(Br)c2)CC1 | 4.56%
NC(=O)Cn1cc(NC(=O)N2CCN(c3ccc(F)cc3)CC2)cn1 | 8.67%
CCN1CC2(CC1=O)CN(C(=O)NC(C)C)CCN(S(C)(=O)=O)C2 (stereo unspecified) | -2.48%
Cc1cc(CC(=O)NCC(O)COc2ccc(F)c(F)c2)n[nH]1 (stereo unspecified) | 17.8%
Cc1cc(C(=O)N2CCCC2c2c(C)nn(C)c2C)no1 (stereo unspecified) | -10.1%
c1cc(CN2CCN(Cc3ccon3)C3(CCCCC3)C2)no1 | 4.47%
